Key:
Format in all cases: in vivo
[1] = test system: Abutilon theophrasti; assay: Greenhouse pre-emergence (PRE) herbicidal test on ABUTH; settings: Abutilon theophrasti, pre-emergence
Outline: (§1)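 Pre-emergence greenhouse assay: sown loamy-sand pots (humus approx. 3.0%) were kept under transparent hoods until rooting, then grown at species-appropriate 10-25° C or 20-35° C. Response ratings of 0 (no damage) to 100 (no plants emerged) were recorded 20 days after application.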

[2] = test system: Alopecurus myosuroides; assay: Greenhouse pre-emergence (PRE) herbicidal test on ALOMY; settings: Alopecurus myosuroides, pre-emergence
Outline: as §1

[3] = test system: Amaranthus retroflexus; assay: Greenhouse pre-emergence (PRE) herbicidal test on AMARE
Procedure: (§2) The culture containers used were plastic pots containing loamy sand with approximately 3.0% of humus as substrate. The seeds of the test plants were sown separately for each species.
(§3) The containers were irrigated gently to promote germination and growth and subsequently covered with transparent plastic hoods until the plants had rooted.
(§4) Depending on the species, the plants were kept at 10-25° C. and 20-35° C., respectively.
(§5) The test period extended over 2 to 4 weeks. During this time, the plants were tended and their response to the individual treatments was evaluated.
(§6) Evaluation was carried out using a scale from 0 to 100. 100 means no emergence of the plants, or complete destruction of at least the above-ground parts, and 0 means no damage or normal course of growth. A good herbicidal activity is given at values of at least 70, and very good herbicidal activity is given at values of at least 85.
(§7) As indicated application was either post emergent (POST) at the respective growth stage (GS) of the weed (BBCH code), or pre-emergent (PRE). […]

[4] = test system: Ambrosia artemisiifolia; assay: Greenhouse pre-emergence (PRE) herbicidal test on AMBEL; settings: for % activity: AMBEL PRE
[5] = test system: Commelina benghalensis; assay: Greenhouse pre-emergence (PRE) herbicidal test on COMBE
Outline: as §1

[6] = test system: Echinochloa crus-galli; assay: Greenhouse pre-emergence (PRE) herbicidal test on ECHCG; settings: Echinochloa crus-galli, pre-emergence
Procedure: as §2, §3, §4, §5, §6, §7

[7] = test system: Euphorbia heterophylla; assay: Greenhouse pre-emergence (PRE) herbicidal test on EPHHL; settings: Euphorbia heterophylla, pre-emergence
Outline: as §1

[8] = test system: Lolium multiflorum; assay: Greenhouse pre-emergence (PRE) herbicidal test on LOLMU; settings: Lolium multiflorum, pre-emergence
Outline: as §1

[9] = test system: Abutilon theophrasti; assay: Greenhouse post-emergence (POST) herbicidal test on ABUTH; settings: Abutilon theophrasti, post-emergence
Outline: (§8)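 Weeds grown in loamy sand (~3.0% humus) to 3–15 cm were sprayed post-emergence with compounds suspended or emulsified in water, formulated as 5% emulsion concentrates. Plants were kept at 10-25 °C or 20-35 °C by species. Damage was scored 0–100 (100 = complete destruction) at 20 DAT.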

[10] = test system: Amaranthus retroflexus; assay: Greenhouse post-emergence (POST) herbicidal test on AMARE; settings: Amaranthus retroflexus, post-emergence
Procedure: as §2
For the post-emergence treatment, the test plants were grown to a plant height of from 3 to 15 cm, depending on the plant habit, and only then treated with the active compounds which had been suspended or emulsified in water. To this end, the test plants were either sown directly, and grown in the same containers, or they were first grown separately as seedlings and transplanted into the test containers a few days prior to treatment.
as §4, §5, §6
If not stated differently, the respective components A and B, and if appropriate, C were formulated as a 5% by weight strength emulsion concentrate and, with addition of the amount of solvent system, introduced into the spray liquor used for applying the active compound.
as §7

[11] = test system: Digitaria sanguinalis; assay: Greenhouse post-emergence (POST) herbicidal test on DIGSA; settings: Digitaria sanguinalis, post-emergence
Outline: as §8

[12] = test system: Echinochloa crus-galli; assay: Greenhouse post-emergence (POST) herbicidal test on ECHCG; settings: Echinochloa crus-galli, post-emergence, 432 h
Outline: as §8

[13] = test system: Euphorbia heterophylla; assay: Greenhouse post-emergence (POST) herbicidal test on EPHHL; settings: Euphorbia heterophylla, post-emergence, 432 h, read-out: % activity
Outline: as §8

[14] = test system: Geranium pusillum; assay: Greenhouse post-emergence (POST) herbicidal test on GERPU; settings: Geranium pusillum, post-emergence, 432 h, read-out: % activity
Outline: as §8

[15] = Ambrosia artemisiifolia, pre-emergence, 432 h, read-out: % activity

Compound: CCC(=O)Nc1ccc(Cl)c(Cl)c1 [Propanil, propanil]
- pest or weed control at 500 g/ha ([1]; 432 h, read-out: % activity): 0%
- pest or weed control at 250 g/ha ([2]; 432 h, read-out: % activity): 0%
- pest or weed control at 500 g/ha ([2]; 432 h, read-out: % activity): 0%
- pest or weed control at 500 g/ha ([3]; Amaranthus retroflexus, pre-emergence, 432 h, read-out: % activity): 0%
- pest or weed control at 250 g/ha [4, 15]: 0%
- pest or weed control at 500 g/ha [4, 15]: 0%
- pest or weed control at 250 g/ha ([5]; Commelina benghalensis, pre-emergence, 432 h, read-out: % activity): 0%
- pest or weed control at 250 g/ha ([6]; 432 h, read-out: % activity): 0%
- pest or weed control at 500 g/ha ([6]; 432 h, read-out: % activity): 0%
- pest or weed control at 250 g/ha ([7]; 432 h, read-out: % activity): 0%
- inhibition at 250 g/ha ([8]; 432 h, PRE, LOLMU, 250 gai/ha, 18 DAT, read-out: % activity solo application): 0%
- inhibition at 500 g/ha ([8]; 432 h, PRE, LOLMU, 500 gai/ha, 18 DAT, read-out: % activity solo application): 0%
- pest or weed control at 250 g/ha ([8]; 432 h, read-out: % activity): 0%
- pest or weed control at 500 g/ha ([8]; 432 h, read-out: % activity): 0%
- pest or weed control at 250 g/ha ([9]; 432 h, read-out: % activity): 0%
- pest or weed control at 500 g/ha ([9]; 432 h, read-out: % activity): 5%
- pest or weed control at 250 g/ha ([10]; 432 h, read-out: % activity): 0%
- pest or weed control at 500 g/ha ([10]; 432 h, read-out: % activity): 0%
- inhibition at 250 g/ha ([11]; 432 h, POST, DIGSA, 250 gai/ha, 18 DAT, read-out: % activity solo application): 10%
- pest or weed control at 250 g/ha ([11]; 432 h, read-out: % activity): 10%
- pest or weed control at 500 g/ha ([11]; 432 h, read-out: % activity): 10%
- inhibition at 250 g/ha ([12]; POST, ECHCG, 250 gai/ha, 18 DAT, read-out: % activity solo application): 0%
- inhibition at 500 g/ha ([12]; POST, ECHCG, 500 gai/ha, 18 DAT, read-out: % activity solo application): 0%
- pest or weed control at 250 g/ha ([12]; read-out: % activity): 0%
- pest or weed control at 500 g/ha ([12]; read-out: % activity): 0%
- pest or weed control at 250 g/ha [13]: 0%
- pest or weed control at 500 g/ha [14]: 40%

Compound: COc1c(Cl)ccc(-c2nc(C(=O)OCc3ccccc3)c(Cl)c(N)c2F)c1F [Florpyrauxifen-Benzyl, florpyrauxifen-benzyl]
- % activity ([3]; AMARE PRE, use rate 5 gai/ha): 0%
- % activity ([4]; use rate 1.25 gai/ha): 30%
- % activity ([4]; use rate 5 gai/ha): 45%
- % activity ([5]; COMBE PRE, use rate 5 gai/ha): 45%

Compound: CS(=O)(=O)NC(=O)c1cc(Oc2ccc(C(F)(F)F)cc2Cl)ccc1[N+](=O)[O-] [Fomesafen, fomesafen]
- inhibition at […] ([1]; 480 h, PRE, ABUTH, use rate 2.5 gai/ha, 20 DAT, read-out: solo application % activity): 0%
- inhibition at 10 g/ha ([1]; 480 h, PRE, ABUTH, use rate 10 gai/ha, 20 DAT, read-out: solo application % activity): 0%
- inhibition at […] ([2]; 480 h, PRE, ALOMY, use rate 2.5 gai/ha, 20 DAT, read-out: solo application % activity): 0%
- inhibition at 10 g/ha ([2]; 480 h, PRE, ALOMY, use rate 10 gai/ha, 20 DAT, read-out: solo application % activity): 0%
- inhibition at […] ([3]; Amaranthus retroflexus, pre-emergence, 480 h, PRE, AMARE, use rate 2.5 gai/ha, 20 DAT, read-out: solo application % activity): 0%
- inhibition at 10 g/ha ([3]; Amaranthus retroflexus, pre-emergence, 480 h, PRE, AMARE, use rate 10 gai/ha, 20 DAT, read-out: solo application % activity): 25%
- inhibition at […] ([4]; Ambrosia artemisiifolia, pre-emergence, 480 h, PRE, AMBEL, use rate 2.5 gai/ha, 20 DAT, read-out: solo application % activity): 0%
- inhibition at 10 g/ha ([4]; Ambrosia artemisiifolia, pre-emergence, 480 h, PRE, AMBEL, use rate 10 gai/ha, 20 DAT, read-out: solo application % activity): 0%
- inhibition at […] ([5]; Commelina benghalensis, pre-emergence, 480 h, PRE, COMBE, use rate 2.5 gai/ha, 20 DAT, read-out: solo application % activity): 10%
- inhibition at 10 g/ha ([5]; Commelina benghalensis, pre-emergence, 480 h, PRE, COMBE, use rate 10 gai/ha, 20 DAT, read-out: solo application % activity): 10%
- inhibition at […] ([6]; 480 h, PRE, ECHCG, use rate 2.5 gai/ha, 20 DAT, read-out: solo application % activity): 0%
- inhibition at 10 g/ha ([6]; 480 h, PRE, ECHCG, use rate 10 gai/ha, 20 DAT, read-out: solo application % activity): 0%
- inhibition at […] ([7]; 480 h, PRE, EPHHL, use rate 2.5 gai/ha, 20 DAT, read-out: solo application % activity): 0%
- inhibition at 10 g/ha ([7]; 480 h, PRE, EPHHL, use rate 10 gai/ha, 20 DAT, read-out: solo application % activity): 0%
- inhibition at […] ([8]; 480 h, PRE, LOLMU, use rate 2.5 gai/ha, 20 DAT, read-out: solo application % activity): 0%
- inhibition at 10 g/ha ([8]; 480 h, PRE, LOLMU, use rate 10 gai/ha, 20 DAT, read-out: solo application % activity): 0%
- inhibition at […] ([9]; 480 h, POST, ABUTH, use rate 2.5 gai/ha, 20 DAT, read-out: solo application % activity): 20%
- inhibition at 10 g/ha ([9]; 480 h, POST, ABUTH, use rate 10 gai/ha, 20 DAT, read-out: solo application % activity): 20%
- inhibition at 10 g/ha ([10]; 480 h, POST, AMARE, use rate 10 gai/ha, 20 DAT, read-out: solo application % activity): 25%
- inhibition at 10 g/ha ([11]; 480 h, POST, DIGSA, use rate 10 gai/ha, 20 DAT, read-out: solo application % activity): 25%

From patent US20260007133A1, “HERBICIDAL COMPOSITION COMPRISING AZINE COMPOUNDS” (BASF SE, priority 2022, published 2026)
